According to patent publication US20240383973A1, “METHODS FOR TREATING CALCITONIN GENE-RELATED PEPTIDE (CGRP) - EXPRESSING CANCERS” (The Board of Regents of the University of Oklahoma, priority 2022, published 2024):
Entries after “also recorded” stand apart in the source; their conditions may differ.

Experiments:
[1] = tested on: Py230 triple negative breast cancer cell line; assay: Py230 tumor transplant in B6 mice, BIBN4096 vs DMSO: tumor growth and tumor mass; assay type: in vivo; settings: vs DMSO mock
Protocol: (§1) B6 mice were transplanted with Py230 tumor cells in the 4th mammary fat pad. Beginning on Day 28 post-transplant, mice were either injected with the CGRP inhibitor BIBN4096 in DMSO (white) or DMSO alone (black). 63 days post-transplant, tumors were isolated and tumor mass (FIG. 2A) determined. Tumors were digested and the ratio of activated CD44^hi CD43^+CD8 T cells to FoxP3^+ Tregs determined (FIG. 2B). PD-1 expression on tumor-isolated CD8+ T cells was measured by flow cytometry (FIG. 2C). Symbols represent individual mice, composite of two experiments. *p<0.05, **p<0.01.
B6 mice were transplanted with Py230 triple negative breast cancer cell line, tumors were measured 3×/week for 63 days. BIBN4096 or DMSO vehicle control (mock) were administered 1×/week starting on day 28 over a period of 4 weeks. Tumor masses were measured at day 63. FIG. 10A. Tumor growth curves of BIBN4096 treated B6 mice and mock treated controls. FIG. 10B. Tumor masses of BIBN4096 treated mice and mock treated controls. (n=10/group), Mann-Whitney Test, *p<0.05.

[2] = tested on: tumor infiltrating T cells and B cells; assay: Flow cytometric analysis of tumor-isolated immune cells after BIBN4096 treatment; assay type: in vivo, mice; settings: day 63, flow cytometry; vs mock
Protocol: as §1
B6 mice were transplanted with Py230 triple negative breast cancer cell line, tumors were measured 3×/week for 63 days. BIBN4096 or DMSO vehicle control (mock) were administered 1×/week starting on day 28 over a period of 4 weeks. Tumor was passed through a 70 µm cell strainer and single cell suspension was stained for flowcytometric analysis. FIG. 11A. BIBN4096 treated mice have a higher ratio of activated CD8^+ T cells to regulatory T cells (T reg) compared to the mock treated controls. FIG. 11B. […] FIG. 11C. […] FIG. 11D. Tumor infiltrating T cell subtypes at day 63 in BIBN4096 and mock treated controls. (n=15 group) Mann-Whitney Test, *p<0.05, **p<0.01, ****p<0.0001, n.s. not significant.

[3] = tested on: Py230 murine mammary tumors; assay: Anti-CGRP/anti-PD-1 combination treatment effect on tumor volume and tumor regression; assay type: in vivo; settings: treatment day 28-56, followed to day 70; 10 mice per group
Text: The anti-PD-1 compound is a rat IgG2a anti-mouse PD-1 antibody, clone RMP1-14, obtained from Bio X Cell. The CGRP inhibitor is olcegepant. The isotype control is a rat IgG2a, clone 2A3, raised against human CD25, obtained from Bio X Cell.
Mice were transplanted with Py230 murine mammary tumors in the mammary fat pad. 28 days after tumor implantation the drug treatments were initiated. Treatments were: (1) Mock—isotype control and vehicle control, (2) CGRP inhibitor+isotype control, (3) anti-PD-1+vehicle control, and (4) Combination: CGRP inhibitor+anti-PD-1. Treatments were terminated 56 days after transplantation. The anti-PD-1 compound was a rat IgG2a anti-mouse PD-1 antibody, clone RMP1-14, obtained from Bio X Cell, the CGRP inhibitor was olcegepant, and the isotype control was a rat IgG2a, clone 2A3, raised against human CD25, obtained from Bio X Cell. Tumor volume, as determined by caliper measurement, was measured every other day until day 70 post-transplant. Average tumor mass of 10 individuals across two experiments is depicted (FIG. 4). The results (FIG. 5) also indicated the numbers of mice in the 4 treatment groups that experienced either tumor progression (i.e., continual growth of tumor), tumor stagnation (cessation of growth for at least 3 weeks), or tumor regression (tumor no longer palpable) in each cohort. […]

NCCCC[C@H](NC(=O)[C@@H](Cc1cc(Br)c(O)c(Br)c1)NC(=O)N1CCC(N2Cc3ccccc3NC2=O)CC1)C(=O)N1CCN(c2ccncc2)CC1 [BIBN4096, Olcegepant]
tumor growth ([1]; B6 mice, Py230, BIBN4096 1x/week from day 28 for 4 weeks, tumors measured for 63 days): inhibits tumor growth; also recorded: stops growth of triple negative breast cancer | tumor mass ([1]; day 63 post-transplant): decreases tumor mass | PD-1 expression on activated CD8+ T cells from tumor [2]: increased expression | ratio of activated CD8+ T cells to regulatory T cells (Treg) in tumor [2]: higher ratio | tumor infiltrating B cells [2]: increased infiltration; also recorded: enhances CD8+ T cell activation and tumor infiltrating B cells | tumor progression (continual growth of tumor), share of tumors [3]: most tumors continued to progress | tumor stagnation (cessation of growth for at least 3 weeks), share of tumors [3]: 30%
